From US8692023B2, “Sugar metabolism improving composition, and pharmaceutical preparation containing said composition” (Erina Co., Inc., priority 2010, dated 2014) come the findings set out here.

Series [1] has as its system db/db diabetes model mouse. In words: Serum TBARS value (anti-oxidizing action) in diabetes model mice. The series is classed as in vivo. To be noted: groups A and B versus group C. The procedure:
(§1) After the termination of the experiment shown in EXAMPLE 4, the blood samples were obtained from the abdominal aorta of the mice from each group under anesthesia, and they were centrifuged with 1,000×g at room temperature to obtain serum samples. After that, the mice of each group were killed by cervical dislocation to put out of the misery; then organs were excised to use the following experiments.
TBARS value, an index for anti-oxidizing action, was determined by using a TBARS Assay Kit (ZeptoMetrix Co., Inc.).

The test system of series [2] is db/db diabetes model mouse. In words: HOMA-IR insulin resistance index in diabetes model mice. The series is classed as in vivo. To be noted: groups A and B (2 and 10 mg/kg/day) versus group C. The procedure: as §1
Serum insulin level of Lewi's insulin-mouse-T (Shibayagi Co., Ltd.) was determined by ELISA (measurement at the wavelengths of 450 nm and 620 nm), according to protocols written in its package insert.
HOMA-IR (Homeostasis model assessment-Insulin Resistance), which is an index of the insulin resistance, was calculated based on data on both blood glucose and serum insulin, by using following equation. HOMA-IR=(blood glucose×insulin level)/405 (1)
HOMA-IR values were obtained from both levels of serum blood glucose and serum insulin of the mice in group N (the normal mice), the administration groups A, B, and C. They were used to investigate for the change of the insulin resistant index.

Series [3] is described as follows: Feed intake and body weight gain of diabetes model mice. Format: in vivo, mouse. To be noted: for Weight gain / Feed intake: diabetes mice. As for the experimental part:
Nepodin was suspended in 0.5% carboxymethylcellulose aqueous solution (Wako Pure Chemical Industries, Ltd.). Male mice of 5 week old, BKS. Cg-+Lerp^db/+Lerp^db/J mouse (db/db diabetes model mouse, hereinafter, it is referred to as “diabetes model mouse”) for a test group (nepodin administration group) were purchased from Charles River Laboratories Japan Inc. Prior to the test, they were maintained for 1 week under the condition of 12 h light/12 h dark at a room temperature approximately 25° C., feeding normal diet. It is considered that db/db mouse also becomes a model for a metabolic syndrome model, because it is obese and has higher levels of variety of lipid. The test group mice were divided into 3 groups: C group (positive control group; n=10) with no nepodin administration; A group (n=6) to which nepodin was administered at the dose of 2 mg/kg/day or 10 mg/kg/day for 5 weeks; and B group (n=6). 0.5% carboxymethylcellulose aqueous solution without nepodin was administered to the negative control group (N group; n=6) and the positive control group (C group) under the same conditions as described above. Feeds and water are freely given to each group.

Series [4] relates to db/db diabetes model mouse. In words: Intraperitoneal glucose tolerance test (IPGTT) in diabetes model mice. The series is classed as in vivo. As for the experimental part: Effect on glucose tolerance by nepodin administration was measured by using blood glucose level change after the intraperitoneal administration of nepodin to the diabetes model mice.
Intraperitoneal glucose tolerance test (IPGTT) was performed on the sixth week after nepodin administration start. At first, the mice of each group were fasted for 16 hours, and then, glucose was intraperitoneally administrated to each mouse at the dose of 2 g/kg.
Blood samples were obtained from the tail vain of each mouse at the time point of 0 min., 30 min., 60 min., 90 min., 120 min., and 180 min. after the glucose administration. Blood glucose level was determined by using Glucose CII Test Wako (Wako Pure Chemical Industries, Ltd.)

Series [5] relates to L6 myotube cells. In words: Glucose intake by L6 myotube cells (decrease of glucose in culture solution). The series is classed as cell-based, rat. To be noted: nepodin 10 to 40 μM, 4 hours, versus medium without nepodin. The procedure:
L6 myoblast cells were suspended at concentration of 12.5×10^4 cells/mL in a D-MEM medium with 5.5 mM of glucose concentration to which 10% v/v fetal bovine serum, 100 μg/mL of streptomycin, and 100 U/mL of penicillin G were added.
The cells were inoculated at the concentration 5×10^4 cells/well (0.4 mL/well) in 24 well multi-plate (NUNC Co., Inc.); then cultured in a 5% CO2 incubator at 37° C. for 11 days. The medium was exchanged every 3 days.
After 11 days, the culture medium was replaced with filter sterilized Krebs solution (Krebs-Henseleit buffer; pH 7.4, 141 mg/L of MgSO4, […] of KH2PO4, 350 mg/L of KCL, 6,900 mg/L of NaCl, 373 mg/L of CaCl2.2H2O, and 2,100 mg/L of NaHCO3) (KHH buffer) supplemented with 0.1% bovine serum albumin, 10 mM of Hepes, and […] of pyruvate sodium but without glucose to maintain the cells in the 5% CO2 incubator at 37° C. for 2 hours.
Next, each KHH buffer was prepared: only 11 mM glucose was added, or 11 mM of glucose and nepodin (10 μM, 20 μM, or 40 μM). […]
Glucose concentrations in the culture solution at the beginning and after 4 hours from the culture start were determined by using a microplate reader (Beckman Coulter, Inc. AD200) and a glucose determination kit (Glucose CII test Wako (Wako Pure Chemical Industries, Ltd.), Catalog number 439-90901). […]

The subject of series [6] is AMPK (5′ adenosine monophosphate-activated protein kinase). In words: Phosphorylated AMPK in L6 myotube cells by western blotting. The series is classed as cell-based, rat. To be noted: nepodin 30 μM, up to 120 minutes. The procedure:
The effect of nepodin administration was decided by determining the amount of a phospholylated AMPK (5′ adenosine monophosphate-activated protein kinase), which was important for glucose metabolism in L6 myotube cells, as an activation index.
L6 myoblast cells were suspended in D-MEM (5.5 mM of glucose concentration) supplemented with 10% v/v fetal bovine serum, 100 μg/mL of streptomycin, and 100 U/mL of penicillin G so as to become the cell concentration at 12.5×10^4 cells/well.
L6 myoblast cells were inoculated into a 6 cm diameter dish (FALCON Co., Inc.) (2 mL/well) so as to become the concentration at 5×10^5 cells/well, and cultured in the 5% CO2 incubator at 37° C. for 11 days. The medium was exchanged every 3 days. […]
The negative control samples were prepared by using the cytolytic buffer to be added to the cells cultured with the medium including DMSO, the solvent of nepodin, at the same amount as nepodin. The negative control sample and the samples were separated by using SDS-PAGE according to the conventional method, and were analyzed by using anti-phosphorylated AMPK antibody and anti-AMPK antibody by the western blotting.

For series [7], the system named is db/db diabetes model mouse. In words: Fasting blood glucose of diabetes model mice. Format: in vivo. To be noted: 4 hour fasting, 2 to 4 weeks after administration start, versus no nepodin. As for the experimental part: Effect of nepodin was evaluated by using fasting blood glucose of model mice (db/db mouse) having diabetes II as an index.
Nepodin was suspended in 0.5% carboxymethylcellulose aqueous solution (Wako Pure Chemical Industries, Ltd.). Male mice of 5 week old, BKS. Cg-+Lerp^db/+Lerp^db/J mouse (db/db diabetes model mouse, hereinafter, it is referred to as “diabetes model mouse”) for a test group (nepodin administration group) were purchased from Charles River Laboratories Japan Inc. Prior to the test, they were maintained for 1 week under the condition of 12 h light/12 h dark at a room temperature approximately 25° C., feeding normal diet. It is considered that db/db mouse also becomes a model for a metabolic syndrome model, because it is obese and has higher levels of variety of lipid.
Heterozygous male mice of 5 week old, BKS. Cg-+Dock 7^m/+Lerp^db/J mouse (normal mouse) for a negative control group (without nepodin administration) were purchased from Charles River Japan Inc. Prior to the test, they were maintained as the same condition as those of the test group. […]
Blood samples were obtained from the tail vein of the mice after 4 hour fasting per week. The blood glucose level was measured by using Glucose CII test Wako (Wako Pure Chemical Industries, Ltd.)

Series [8] relates to db/db diabetes model mouse. Briefly: Liver and serum neutral lipid and cholesterol levels in diabetes model mice. The series is classed as in vivo.
Text: as §1
Livers from the mice of each group were homogenized and total lipid was extracted by using Folch method. Both amounts of neutral lipid and cholesterol in the liver were determined by using LabAssat Tiglyceride (Wako Pure Chemical Industries, Ltd.) and LabAssay Cholesterol (Wako Pure Chemical Industries, Ltd.) Results are shown in FIGS. 7A and 7B.
The serum neutral lipid (triglyceride) level was determined by using LabAssay Triglyceride (Wako Pure Chemical Industries, Ltd.). The serum cholesterol level was determined by using LabAssay Cholesterol (Wako Pure Chemical Industries, Ltd.).

The mark [9] stands for this setting: nepodin administration groups versus diabetes model group with no administration.

Turning to `CC(=O)c1c(C)cc2cccc(O)c2c1O` [nepodin, 2-Acetyl-1,8-dihydroxy-3-methyl-napthalene], the “serum TBARS value” in series [1] is “significantly lower”. The HOMA-IR result in series [2] is on record as “significantly lower”. The Weight gain in series [3] (group A, nepodin 2 mg/kg/day) came to 18.7 ± 1.76 g/5 weeks. In addition, the Feed intake in series [3] (group A, nepodin 2 mg/kg/day for 5 weeks) came out at 5.26 ± 0.61 g/day. Moreover, the Weight gain in series [3] (group B, nepodin 10 mg/kg/day) was 19.45 ± 2.68 g/5 weeks. In addition, the Feed intake in series [3] (group B, nepodin 10 mg/kg/day for 5 weeks) turned out to be 5.40 ± 0.50 g/day. For the same compound, in series [3] (diabetes model mice, A group and B group (2 or 10 mg/kg/day) versus no nepodin), the “average amount of feed intake and body weight gain versus C group” value is “no significant difference”. The “area under the curve (AUC) of blood glucose levels” value in series [4] (B group (10 mg/kg), AUC of C group = 100%, p<0.01) was “significantly low”. For the same compound, in series [4] (B group, 10 mg/kg nepodin, sixth week, glucose 2 g/kg i.p. after 16 hours fasting), the “increase of the blood glucose level after glucose load” value was “significantly suppressed”. For the same compound, the “glucose intake by L6 myotube cells” value in series [5] is “dose-dependently improved”. Besides, the “Phosphorylated AMPK in L6 myotube cells” value in series [6] is given as “increased”. The “fasting blood glucose level” value in series [7] was “significantly lower”. Further, in series [8] (groups A and B versus group C), the “cholesterol level in the liver” value is “significantly lower” and the “neutral lipid level in the liver” value was “significantly lower”. In series [8] (setting [9]), the serum cholesterol level entry is given as “significantly lower” and the “serum neutral lipid (triglyceride) level” value was “significantly lower”.
